The text below walks through data of patent US11007274B2, “Compounds for medicinal applications” (Ausvir Therapeutics Pty LTD, priority 2015, dated 2021).

Data set [1] relates to Influenza A virus H7N9, A/Anhui/1/2003. Type of data set: cell-based.
The conditions of data set [2]: line Neutral Red (Cytopathic effect/Toxicity). A general note: Damage to the host cells serves as the signal in cytopathic effect assays.
Another data set deals with Duck/MN/1525/81. Type of data set: cell-based. As to conditions: Table 7.
For a further data set, the system named is Perth/16/2009. Briefly: microbe, parasite or virus in culture. Type of data set: cell-based. The note with it: Table 7.
The subject of a further data set is Florida/4/2006. Briefly: microbe, parasite or virus in culture. Type of data set: cell-based. The note with it: Table 7.
Data set [3] deals with Influenza A virus H5N1, Hong Kong/213/2003. Briefly: microbe, parasite or virus in culture. Format: cell-based.
The subject of data set [4] is Influenza A virus H7N9, A/Anhui/1/2003. Type of data set: cell-based. This is another data set of the same source.
Data set [5] relates to Influenza A virus H5N1, Hong Kong/213/2003. Briefly: microbe, parasite or virus in culture. Type of data set: cell-based. This is another data set of the same source.
A further data set deals with CA/07/2009. Put plainly: microbe, parasite or virus in culture. Format: cell-based. The note with it: Table 7.
The test system of data set [6] is Influenza A virus H3N2, Perth/16/2009. Briefly: microbe, parasite or virus in culture. Type of data set: cell-based. As to conditions: Table 11, Neutral Red, read-out: EC50.
For the next data set, the system named is CA/07/2009 virus H1N1. Briefly: Viral Plaque Reduction Assay (Table 22). Type of data set: cell-based. As to conditions: Influenza A virus.
The subject of data set [7] is Influenza B virus, B/Brisbane/60/2008. Put plainly: microbe, parasite or virus in culture. Format: cell-based. As to conditions: Table 18, Neutral Red.
Data set [8] has the same test system. Briefly: microbe, parasite or virus in culture. Format: cell-based.
For data set [9], the system named is Influenza A virus H1N1, California/07/2009. Put plainly: microbe, parasite or virus in culture. Type of data set: cell-based. As to conditions: Table 13, Neutral Red, read-out: EC50.
For data set [10] the test system is unchanged. Briefly: microbe, parasite or virus in culture. Format: cell-based.
For data set [11], the system named is Influenza B virus, B/Florida/4/2006. Put plainly: microbe, parasite or virus in culture. Format: cell-based.
Another data set concerns kinases. Briefly: KINOME scan profiling (Table 41).
A further data set concerns A/Mississippi/03/01H274Y. Type of data set: cell-based, influenza virus.
The target of a further data set is hERG (Homo sapiens, UniProt Q12809).
The next data set deals with A/PR/8 virus H1N1. Put plainly: Viral Plaque Reduction Assay (Table 23). Type of data set: cell-based, influenza virus. As to conditions: Influenza A virus. In general terms: Plaque reduction counts the foci of infection that form in a cell layer.
The test system of data set [12] is Influenza B virus, B/Florida/4/2006. Briefly: microbe, parasite or virus in culture. Type of data set: cell-based. The note with it: Table 19, Neutral Red (Cytopathic effect/Toxicity), B/Florida/4/2006, read-out: EC50.
Data set [13] concerns Influenza A virus H3N2, Perth/16/2009. Briefly: microbe, parasite or virus in culture. Type of data set: cell-based.
Data set [14] deals with Influenza A virus H5N1, Duck/MN/1525/81. Briefly: microbe, parasite or virus in culture. Format: cell-based.

In brackets after ≈: the same amount, converted by molar mass. Several values for one entry are separate records, joined by “and”; a condition that tells them apart may be missing. Identical values can stand only once. Like-named read-outs stand apart in the source and are kept apart here.

Sequence of hERG (Q12809 whole entry): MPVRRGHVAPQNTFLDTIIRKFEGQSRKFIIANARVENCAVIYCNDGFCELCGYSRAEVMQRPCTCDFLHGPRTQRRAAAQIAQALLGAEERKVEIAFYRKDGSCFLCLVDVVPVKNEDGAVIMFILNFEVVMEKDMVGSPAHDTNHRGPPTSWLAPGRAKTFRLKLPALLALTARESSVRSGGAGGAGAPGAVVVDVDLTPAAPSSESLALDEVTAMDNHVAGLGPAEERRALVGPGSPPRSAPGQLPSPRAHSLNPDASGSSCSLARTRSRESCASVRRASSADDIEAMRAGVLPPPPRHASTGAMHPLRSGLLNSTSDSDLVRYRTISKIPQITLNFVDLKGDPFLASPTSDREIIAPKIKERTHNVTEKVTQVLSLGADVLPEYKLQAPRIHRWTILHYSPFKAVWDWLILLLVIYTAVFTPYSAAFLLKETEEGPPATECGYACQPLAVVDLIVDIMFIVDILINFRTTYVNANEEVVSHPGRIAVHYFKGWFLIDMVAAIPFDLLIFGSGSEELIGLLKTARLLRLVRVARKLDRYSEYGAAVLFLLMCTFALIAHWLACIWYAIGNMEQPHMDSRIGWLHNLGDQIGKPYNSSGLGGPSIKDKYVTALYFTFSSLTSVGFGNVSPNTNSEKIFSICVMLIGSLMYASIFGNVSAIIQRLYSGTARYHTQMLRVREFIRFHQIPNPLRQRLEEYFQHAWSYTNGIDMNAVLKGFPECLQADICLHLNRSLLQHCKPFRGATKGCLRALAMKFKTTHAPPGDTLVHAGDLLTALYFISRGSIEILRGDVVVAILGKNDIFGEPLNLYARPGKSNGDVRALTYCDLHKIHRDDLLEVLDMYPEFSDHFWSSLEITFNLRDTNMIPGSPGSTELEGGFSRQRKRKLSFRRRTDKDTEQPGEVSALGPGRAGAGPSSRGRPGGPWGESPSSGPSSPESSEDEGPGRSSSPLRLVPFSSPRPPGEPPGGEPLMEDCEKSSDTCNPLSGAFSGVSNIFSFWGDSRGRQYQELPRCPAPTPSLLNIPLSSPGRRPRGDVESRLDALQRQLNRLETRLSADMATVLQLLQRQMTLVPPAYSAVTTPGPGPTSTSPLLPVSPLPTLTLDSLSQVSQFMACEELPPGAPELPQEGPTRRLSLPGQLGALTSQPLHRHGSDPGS

Consider `CC(=O)N[C@H]1[C@H]([C@H](OC(=O)NCCCCCCCCNC(=O)[C@@H]2C[C@H](C(=O)NCCCCCCCCNC(=O)O[C@@H]([C@@H]3OC(C(=O)O)=C[C@H](N=C(N)N)[C@H]3NC(C)=O)[C@H](O)CO)C[C@H](C(=O)N[C@@H](CC(=O)NCS(=O)(=O)O)C(=O)NCS(=O)(=O)O)C2)[C@H](O)CO)OC(C(=O)O)=C[C@@H]1N=C(N)N` [MD154, CHTCA(Z0)2-L-Asp(NHCH2SO3H)2], for which the EC50 (as a rule, the concentration needed to bring the measured effect to its halfway point) was less than 0.32 ng/mL in data set [1]; less than 0.087 nM in the data set on Duck/MN/1525/81; less than 0.087 nM in the data set with Perth/16/2009; less than 0.087 nM in the data set with Florida/4/2006; less than 0.32 ng/mL in data set [5]; 6.06 nM in the data set with CA/07/2009. In addition, the CC50 in data set [2] (Table 9) and in [2] (Table 10) was more than 1000 ng/mL each time. Besides, the “EC50 Perth/16/2009” value in the data set with Perth/16/2009 is less than 0.13 ng/mL. For the same molecule, in the data set on Florida/4/2006, the “EC50 Florida/4/2006” value was less than 0.13 ng/mL. Moreover, the 90% effect concentration (EC90) (usually the concentration needed for an effect of 90%) in [3] is less than 0.32 ng/mL; in data set [4], 10 ng/mL (≈ 6.73 nM). Further, the “EC50 CA/07/2009” value in the data set with CA/07/2009 (MDCK cell line) was 9 ng/mL (≈ 6.05 nM).

Turning to `CC(=O)N[C@H]1[C@H]([C@H](OC(=O)NCCCCCCCCCNC(=O)c2cc(C(=O)NCCCCCCCCCNC(=O)O[C@@H]([C@@H]3OC(C(=O)O)=C[C@H](NC(=N)N)[C@H]3NC(C)=O)[C@H](O)CO)c(C(=O)N[C@H](CC(=O)NCS(=O)(=O)O)C(=O)NCS(=O)(=O)O)cc2C(=O)N[C@H](CC(=O)NCS(=O)(=O)O)C(=O)NCS(=O)(=O)O)[C@H](O)CO)OC(C(=O)O)=C[C@@H]1NC(=N)N` [MD185, PK2PYR(Zn)2[(D-Asp)(NHCH2SO3)2]2], the EC50 in [6] was 0.1 ng/mL (≈ 0.0539 nM); in the data set on CA/07/2009 virus H1N1, 9.5e-05 µg/mL and 0.0514 nM; in [7] it was 6.2 ng/mL (≈ 3.34 nM); in [8], 6 ng/mL (≈ 3.24 nM); in data set [9], 0.15 ng/mL (≈ 0.0809 nM); in the data set with Perth/16/2009 (unidentified influenza virus) it was < 0.00013 µg/mL and < 0.07 nM. For the same molecule, the EC50 was < 0.00013 µg/mL and < 0.07 nM in the data set with Florida/4/2006 (unidentified influenza virus); 6 ng/mL (≈ 3.24 nM) in [11]; 0.89 nM with A/Mississippi/03/01H274Y; 4.26 nM in the data set with A/PR/8 virus H1N1; 6.2 ng/mL (≈ 3.34 nM) in [12]; less than 0.32 ng/mL in data set [5] (Influenza A virus, H5N1). In addition, the EC50 came to 3.2 nM in the data set on CA/07/2009 (unidentified influenza virus) and 6 ng/mL in the data set with CA/07/2009 (unidentified influenza virus, MDCK cell line). Besides, the 90% effect concentration (EC90) was 0.26 ng/mL (≈ 0.14 nM) in [10]; less than 0.32 ng/mL in [3] (Influenza A virus, H5N1); 0.86 ng/mL (≈ 0.464 nM) in data set [13]; 1.53 ng/mL (≈ 0.825 nM) in data set [14]. Moreover, in the data set on kinases, the “Number of Hits” value was found to be 0. The “hERG IC50” value at hERG is on record as “not calculable”.
